Measurements as given in patent US20240316008A1, “TREATMENT OF SYSTEMIC IMMUNE ACTIVATION SYNDROMES” (TRANQUIS THERAPEUTICS, INC., priority 2020, published 2024).

Legend:
[1] = tested on: TNF-α; test: LPS-induced TNF-α production of human PBMC (CBA assay); assay type: cell-based; conditions: 100 ng/ml LPS, 24 hours, compared to no treatment
Description: Peripheral blood mononuclear cells (PBMC) from 4 different healthy volunteers were used in this study. Fresh blood samples were collected at Stanford Blood Center and processed for PBMC isolation with Ficoll gradient. PBMC samples were stored in liquid nitrogen at […] for subsequent analysis of TNF-α production. For TNF-α stimulation, frozen PBMC samples were thawed and rested at 37° C. before cells were stimulated with 100 ng/ml of LPS for 24 hours. DMSO (1:1000 final dilution) or TQS-168 in DMSO (1:1000 final dilution) at various concentrations was added to cell cultures of LPS-stimulated PBMC to evaluate the effects of T-168 on TNF-α production of human primary myeloid cells. After 24 hours stimulation, supernatant samples from various conditions were collected and TNF-α concentrations in the supernatants analyzed with cytometric bead array (CBA) assay per protocols from BD Biosciences. TNF-α was quantified by median fluorescent intensity reading (MFI). Samples were analyzed directly after staining with LSRII flow cytometer.

[2] = tested on: sepsis; test: Mouse model of sepsis / hyperinflammation (virus followed by LPS, as described in Wang); conditions: mice, intravenous, various doses
Description: Briefly, mice are anesthetized with a ketamine/xylazine mixture. A virus, such as a coronavirus, influenza virus, rhinovirus, respiratory syncytial virus, metapneumovirus, adenovirus, or a boca virus, is administered. The virus may be administered intranasally dropwise.
Next, LPS diluted in a buffer, such as PBS, is injected intraperitoneally at specific doses.
To provide comparators for assessing the effects of TQS-168 and its analogs, groups of positive control mice are treated with one or more antibodies against pro-inflammatory cytokines of interest: anti-NK1.1 antibody (PK136; Bio X Cell) diluted in PBS is injected at 100 μg per injection (100 μL) retro-orbitally concurrently with each challenge; anti-IFNγ antibody (XMG1.2, Bio X Cell) is diluted in PBS and injected at 500 μg per injection (100 μL) retro-orbitally concurrently with each challenge; anti-IL6R (15A7.10 mg/kg; Bio X Cell), anti-TNFα (XT3.11, 500 μg per injection; Bio X Cell), anti-IFNαR (MAR1-5A3, 10 mg/kg; Bio X Cell), and anti-IL1β (B122, 500 μg per injection; Bio X Cell) are injected retro-orbitally. For a negative control, isotype antibody is injected retro-orbitally.
The pro-inflammatory cytokines can be measured using the ELISA assay described in Example 1.

CC(C)(C)c1ccc(-c2nc3ccccc3[nH]2)cc1 [TQS-168, 2-(4-tert-butylphenyl)-1H-benzimidazole]
suppression of TNFα production ([1]; 5 μM): statistically significant suppression | suppression of TNFα production ([1]; 20 μM): statistically significant suppression | circulating concentrations of pro-inflammatory cytokines [2]: effective in reducing | hyperinflammatory symptoms [2]: effective in reducing
